Experimental data: ChEMBL document CHEMBL2396531, “Hybrid molecule from O2-(2,4-dinitrophenyl)diazeniumdiolate and oleanolic acid: a glutathione S-transferase π-activated nitric oxide prodrug with selective anti-human hepatocellular carcinoma activity and improved stability” (J Med Chem, 2013)
Calls of active or inactive are those of the source. The calls are words filed in the database; no cut-off is given here.

What was measured:
Bel-7402 = assay: Cytotoxicity against human Bel7402 cells at 30 uM after 24 hrs by MTT assay; format: functional
HepG2 [1] = assay: Induction of intracellular NO release in human HepG2 cells at 30 uM after 6 hrs by Griess assay; format: functional, cell-based
HepG2 [2] = assay: Cytotoxicity against human HepG2 cells at 30 uM after 24 hrs by MTT assay; format: functional
SMMC-7721 = assay: Cytotoxicity against human SMMC7721 cells at 30 uM after 24 hrs by MTT assay; format: functional
HepG2 [3] = assay: Cytotoxicity against human HepG2 cells at 10 to 100 uM after 24 hrs by MTT assay; format: functional, cell-based
HepG2 [4] = assay: Induction of intracellular NO release in human HepG2 cells at 10 uM after 24 hrs by DAF-FM DA staining-based flow cytometry; format: functional, cell-based
HepG2 [5] = assay: Cytotoxicity against human HepG2 cells assessed as cell viability at 3 uM after 24 hrs by MTT assay; format: functional
HepG2 [6] = assay: Cytotoxicity against human HepG2 cells assessed as cell viability at 3 uM after 24 hrs by MTT assay in presence of hemoglobin; format: functional, cell-based
HepG2 [7] = assay: Cytotoxicity against human HepG2 cells assessed as cell viability at 3 uM after 24 hrs by MTT assay in presence of EA; format: functional

Structure (SMILES) | Activity (Bel-7402) | Activity (HepG2 [2]) | Activity (SMMC-7721) | further results
CN(CCO)/[N+]([O-])=N/Oc1cc(NCC(=O)O[C@H]2CC[C@]3(C)[C@H]4CC=C5[C@@H]6CC(C)(C)CC[C@]6(C(=O)O[C@@H]6O[C@H](CO)[C@H](O)[C@H](O)[C@H]6O)CC[C@@]5(C)[C@]4(C)CC[C@H]3C2(C)C)c([N+](=O)[O-])cc1[N+](=O)[O-] | Active | Active | Active | Activity (HepG2 [1]): Active
CN1CCN(/[N+]([O-])=N\Oc2cc(NCCC(=O)O[C@H]3CC[C@]4(C)[C@H]5CC=C6[C@@H]7CC(C)(C)CC[C@]7(C(=O)O[C@@H]7O[C@H](CO)[C@H](O)[C@H](O)[C@H]7O)CC[C@@]6(C)[C@]5(C)CC[C@H]4C3(C)C)c([N+](=O)[O-])cc2[N+](=O)[O-])CC1 | Active | Active | Active | –
CN(CCO)/[N+]([O-])=N/Oc1cc(N[C@@H](Cc2ccccc2)C(=O)O[C@H]2CC[C@]3(C)[C@H]4CC=C5[C@@H]6CC(C)(C)CC[C@]6(C(=O)O[C@@H]6O[C@H](CO)[C@H](O)[C@H](O)[C@H]6O)CC[C@@]5(C)[C@]4(C)CC[C@H]3C2(C)C)c([N+](=O)[O-])cc1[N+](=O)[O-] | Active | Active | Active | –
CN(CCO)/[N+]([O-])=N\Oc1cc(N2CCN(CC(=O)O)CC2)c([N+](=O)[O-])cc1[N+](=O)[O-] | – | – | – | Activity (HepG2 [3]): Active
CN(CCO)/[N+]([O-])=N/Oc1cc(NCCCC(=O)O[C@H]2CC[C@]3(C)[C@H]4CC=C5[C@@H]6CC(C)(C)CC[C@]6(C(=O)O[C@@H]6O[C@H](CO)[C@H](O)[C@H](O)[C@H]6O)CC[C@@]5(C)[C@]4(C)CC[C@H]3C2(C)C)c([N+](=O)[O-])cc1[N+](=O)[O-] | Active | Active | Active | –
CN(C)/[N+]([O-])=N\Oc1cc(NCCC(=O)O[C@H]2CC[C@]3(C)[C@H]4CC=C5[C@@H]6CC(C)(C)CC[C@]6(C(=O)O[C@@H]6O[C@H](CO)[C@H](O)[C@H](O)[C@H]6O)CC[C@@]5(C)[C@]4(C)CC[C@H]3C2(C)C)c([N+](=O)[O-])cc1[N+](=O)[O-] | Active | Active | Active | –
CCOC(=O)N1CCN(/[N+]([O-])=N/Oc2ccc([N+](=O)[O-])cc2[N+](=O)[O-])CC1 | – | – | – | Activity (HepG2 [4]): Active
CCN(CC)/[N+]([O-])=N\Oc1cc(NCCC(=O)O[C@H]2CC[C@]3(C)[C@H]4CC=C5[C@@H]6CC(C)(C)CC[C@]6(C(=O)O[C@@H]6O[C@H](CO)[C@H](O)[C@H](O)[C@H]6O)CC[C@@]5(C)[C@]4(C)CC[C@H]3C2(C)C)c([N+](=O)[O-])cc1[N+](=O)[O-] | Active | Active | Active | –
CN(CCO)/[N+]([O-])=N\Oc1cc(NCCC(=O)O[C@H]2CC[C@]3(C)[C@H]4CC=C5[C@@H]6CC(C)(C)CC[C@]6(C(=O)O[C@@H]6O[C@H](CO)[C@H](O)[C@H](O)[C@H]6O)CC[C@@]5(C)[C@]4(C)CC[C@H]3C2(C)C)c([N+](=O)[O-])cc1[N+](=O)[O-] | – | – | – | Activity (HepG2 [1]): Active
CN(CCO)c1cc(N2CCN(CC(=O)O[C@H]3CC[C@]4(C)[C@H]5CC=C6[C@@H]7CC(C)(C)CC[C@]7(C(=O)O[C@@H]7O[C@H](CO)[C@H](O)[C@H](O)[C@H]7O)CC[C@@]6(C)[C@]5(C)CC[C@H]4C3(C)C)CC2)c([N+](=O)[O-])cc1[N+](=O)[O-] | – | – | – | Activity (HepG2 [3]): Active; Activity (HepG2 [5]): Active; Activity (HepG2 [6]): inactive; Activity (HepG2 [7]): Active
CC1(C)CC[C@]2(C(=O)O[C@@H]3O[C@H](CO)[C@H](O)[C@H](O)[C@H]3O)CC[C@]3(C)C(=CC[C@@H]4[C@@]5(C)CC[C@H](OC(=O)CCNc6cc(O/N=[N+](/[O-])N7CCN(Cc8ccccc8)CC7)c([N+](=O)[O-])cc6[N+](=O)[O-])C(C)(C)[C@@H]5CC[C@]43C)[C@@H]2C1 | Active | Active | Active | –
CC(C)C[C@H](Nc1cc(O/N=[N+](\[O-])N(C)CCO)c([N+](=O)[O-])cc1[N+](=O)[O-])C(=O)O[C@H]1CC[C@]2(C)[C@H]3CC=C4[C@@H]5CC(C)(C)CC[C@]5(C(=O)O[C@@H]5O[C@H](CO)[C@H](O)[C@H](O)[C@H]5O)CC[C@@]4(C)[C@]3(C)CC[C@H]2C1(C)C | Active | Active | Active | –
CC1(C)CC[C@]2(C(=O)O[C@@H]3O[C@H](CO)[C@H](O)[C@H](O)[C@H]3O)CC[C@]3(C)C(=CC[C@@H]4[C@@]5(C)CC[C@H](O)C(C)(C)[C@@H]5CC[C@]43C)[C@@H]2C1 | – | – | – | Activity (HepG2 [3]): Active
C[C@H](Nc1cc(O/N=[N+](\[O-])N(C)CCO)c([N+](=O)[O-])cc1[N+](=O)[O-])C(=O)O[C@H]1CC[C@]2(C)[C@H]3CC=C4[C@@H]5CC(C)(C)CC[C@]5(C(=O)O[C@@H]5O[C@H](CO)[C@H](O)[C@H](O)[C@H]5O)CC[C@@]4(C)[C@]3(C)CC[C@H]2C1(C)C | Active | Active | Active | –
